Laboratory results published in patent US9863949B2, “Method for predicting and evaluating responsiveness to cancer treatment with DNA-damaging chemotherapeutic agents” (NEKTAR THERAPEUTICS, priority 2013, dated 2018).
Like-named read-outs stand apart in the source and are kept apart here.

Key:
NCI-H460 cells = experiment: DNA damage pathway markers in NCI-H460 cells treated ex vivo, laser scanning cytometry; format: cell-based; settings: NCI-H460, 0.01 μM drug
Experimental: The cell lines, H460, HCT116, and HL60 were used in the study. H460 (30,000 cells/well) and HCT116 (15,000 cells/well) were grown in three 48 well plates. HL60 suspension cells were grown in five 25 cm flasks (1×10^6 cells/flask). Cells were treated with the following two concentrations of gemcitabine and SN-38:
Cells treated with DMSO (final concentration 0.01%) were used as the control. Following 24 hours of drug treatment, cells were washed and fixed at 0 hour, 6 hour, and 24 hour timepoints. Cells were then stained for detection of the following markers: γ-H2AX, survivin, BRCA1, BRCA2, FAD51, and ATM. Expression levels for each biomarker were determined based upon mean fluorescence intensity (MFI) by laser scanning cytometry (iCys).

HL60 = tested on: HL60
Experimental: (§1) Gemcitabine inhibits thymidylate synthetase, leading to inhibition of DNA synthesis and cell death. The cells were treated at concentrations of 0.01, 0.1, 1 and 10 μM in triplicate with appropriate controls.
(§2) A MTT cytotoxicity assay was performed. Optical density (OD) was determined for each sample, and IC50 values were determined (Graphpad Prism software using 4-parameter, non-linear curve fitting) for each drug relative to each cell line. The dose response of SN-38 and gemcitabine in the different cell lines was plotted.

NCI-H460 = tested on: NCI-H460
Experimental: as §1, §2

HCT116 cells = experiment: Biomarker assay qualification, drug-treated HCT116 cells, MFI by iCys; format: cell-based, human; settings: HCT116 treated with 10 μM SN-38 for 24 hours
Experimental: Primary and secondary antibodies were obtained from commercial sources. Control (0.1% DMSO) and drug-treated (SN-38, 10 uM) tumor cell lines and peripheral blood mononuclear cells (PBMCs) from healthy donors were used for biomarker qualification. The cell lines employed were as follows: HCT 116 (human colon carcinoma), MCF7 (human breast adenocarcinoma), A549 (human lung carcinoma), and SK-BR-3 (human breast adenocarcinoma, derived from metastatic site).
(§3) Colorectal HCT-116 tumor cell lines treated with drug (SN-38, 10 μM) or DMSO (0.1%) were used as positive and negative controls, respectively, for the assay development for topoisomerase I and γ-H2Ax. […] After incubation, cells were detached using 0.25% trypsin for 2-5 minutes, washed, counted, fixed with 2% PFA for 20 minutes, and cytospun onto glass slides.
as §3, with “controls” for “controls, respectively,”, “of RAD51.” for “for topoisomerase I and γ-H2Ax.”
For each marker, one to three different antibodies were tested. […] Cells were cover slipped and fluorescence intensity was quantified using iCys (CompuCyte, Westwood, Mass.). […]

[1] = 24 hr drug + 24 hr without drug

Experimental for metastatic breast cancer: Seventy patients were enrolled in the trial (n=35 per arm). […] Fifteen (21.4%) patients had received prior bevacizumab. Among five patients with HER2-positive disease, all had received prior trastuzumab; none had received prior lapatinib.
Patients were randomized 1:1 into two treatment arms, comparing the same dose with a different dosing frequency. 4-arm-PEG-gly-irino-20K was administered at 145 mg/m^2 every 14 days (q14d) or every 21 days (q21 d) as an intravenous infusion over 90 minutes on day 1. Patients received treatment until disease progression or unacceptable toxicity. The drug dosage was dose-reduced by 25 mg/m^2 for grade 3-4 hematologic toxicity, grade 3-4 diarrhea, and other grade 2-4 non-hematologic toxicities (other than alopecia, anorexia, asthenia, and untreated nausea/vomiting). Protocol retreatment criteria required that toxicities and hematologic parameters were resolved to the following grades or levels prior to administration of the next dose: diarrhea, fully resolved; other non-hematologic toxicities, grade 1; neutrophils≧1,500/mm^3; platelets≧100,000/mm^3; and hemoglobin≧9 g/dL.
Medical history was taken at screening and on day 1 of each cycle. Physical exam was performed and serum CA27.29, complete blood count with differential, and serum chemistry were analyzed at screening, on day 1 of each cycle, and at end of treatment. Coagulation parameters were analyzed at screening and on day 1 of each cycle. Radiologic exam (either computed tomography or magnetic resonance imaging, with the same method per lesion used throughout the study) occurred at screening (within 28 days of day one, cycle 1) and approximately every 6 weeks thereafter until progressive disease, start of new anticancer therapy, or end of study. Patients were contacted approximately every 3 months after the end-of-treatment visit to assess progression (in the absence of progression on study), survival, receipt of subsequent anti-cancer therapy, and resolution of toxicity.
Response was measured by RECIST version 1.0 (Therasse, P., et al., 2000, Journal of the National Cancer Institute, 92 (3), 205-216) and toxicities were graded according to the National Cancer Institute Common Terminology Criteria for Adverse Events (NCI-CTCAE) version 3.0.
The primary endpoint was ORR, with confirmation of all responses by a second imaging procedure at least 28 days from the initial observation of response. Secondary endpoints were PFS, overall survival (OS), 6-month and 1-year survival, and safety. Exploratory endpoints included change from baseline in CA27.29, UGT1A1 and ABCC2 polymorphism for correlation with select toxicities.
Three populations for analysis were defined: 1) intent-to-treat (ITT), 2) efficacy evaluable, and 3) safety. The ITT population was the primary population for all efficacy analyses and included all randomized patients. […] The safety population consisted of all patients who received at least one dose or partial dose of chemotherapeutic agent.
Summary statistics were used for continuous variables, frequency counts and percentages were used for categorical variables. Ninety-five percent confidence interval were calculated for ORR using the Exact method. Time-to-event variables were analyzed using the Kaplan-Meier method.

With `Nc1ccn([C@@H]2O[C@H](CO)[C@@H](O)C2(F)F)c(=O)n1` [Gemcitabine, gemcitabine] the “ATM % change in MFI” value (NCI-H460 cells; 24 hr drug) was 125%, the “ATM % change of positive cells” value (NCI-H460 cells; 24 hr drug) was −28% and the “BRCA1 % change in MFI” value (NCI-H460 cells; 24 hr drug) was −3%. For the same compound, the “BRCA1 % change of positive cells” value (NCI-H460 cells; 24 hr drug) was 162%, the “BRCA2 % change in MFI” value (NCI-H460 cells; 24 hr drug) was −43% and the “BRCA2 % change of positive cells” value (NCI-H460 cells; 24 hr drug) was 130%. For the same compound, the “RAD51 % change in MFI” value (NCI-H460 cells; 24 hr drug) was 7%, the “RAD51 % change of positive cells” value (NCI-H460 cells; 24 hr drug) was 62% and the “Survivin % change in MFI” value (NCI-H460 cells; 24 hr drug) was −32%. The “Survivin % change of positive cells” value (NCI-H460 cells; 24 hr drug) was −32%, the “yH2AX % change in MFI” value (NCI-H460 cells; 24 hr drug) was 3% and the “yH2AX % change of positive cells” value (NCI-H460 cells; 24 hr drug) was 204%. The “ATM % change in MFI” value (NCI-H460 cells; 24 hr drug + 6 hr without drug) was 438%, the “ATM % change of positive cells” value (NCI-H460 cells; 24 hr drug + 6 hr without drug) was 80% and the “BRCA1 % change in MFI” value (NCI-H460 cells; 24 hr drug + 6 hr without drug) was 18%. The “BRCA1 % change of positive cells” value (NCI-H460 cells; 24 hr drug + 6 hr without drug) was −54%, the “BRCA2 % change in MFI” value (NCI-H460 cells; 24 hr drug + 6 hr without drug) was −28% and the “BRCA2 % change of positive cells” value (NCI-H460 cells; 24 hr drug + 6 hr without drug) was 6%. The “RAD51 % change in MFI” value (NCI-H460 cells; 24 hr drug + 6 hr without drug) was 127%, the “RAD51 % change of positive cells” value (NCI-H460 cells; 24 hr drug + 6 hr without drug) was 613% and the “Survivin % change in MFI” value (NCI-H460 cells; 24 hr drug + 6 hr without drug) was 223%. For the same compound, the “Survivin % change of positive cells” value (NCI-H460 cells; 24 hr drug + 6 hr without drug) was 1%, the “yH2AX % change in MFI” value (NCI-H460 cells; 24 hr drug + 6 hr without drug) was 40% and the “yH2AX % change of positive cells” value (NCI-H460 cells; 24 hr drug + 6 hr without drug) was 1235%. For the same compound, the “ATM % change in MFI” value (NCI-H460 cells; [1]) was 151%, the “ATM % change of positive cells” value (NCI-H460 cells; [1]) was 40% and the “BRCA1 % change in MFI” value (NCI-H460 cells; [1]) was 206%. For the same compound, the “BRCA1 % change of positive cells” value (NCI-H460 cells; [1]) was 3750%, the “BRCA2 % change in MFI” value (NCI-H460 cells; [1]) was 296% and the “BRCA2 % change of positive cells” value (NCI-H460 cells; [1]) was 167%. The “RAD51 % change in MFI” value (NCI-H460 cells; [1]) was 23%, the “RAD51 % change of positive cells” value (NCI-H460 cells; [1]) was 260% and the “Survivin % change in MFI” value (NCI-H460 cells; [1]) was 457%. For the same compound, the “Survivin % change of positive cells” value (NCI-H460 cells; [1]) was −14%, the “yH2AX % change in MFI” value (NCI-H460 cells; [1]) was 288% and the “yH2AX % change of positive cells” value (NCI-H460 cells; [1]) was 1834%. For the same compound, the “dose response in MTT cytotoxicity assay” value (HL60) was “Good dose response” and the “dose response in MTT cytotoxicity assay” value (NCI-H460) was “Good dose response”.
In the case of `CCc1c2c(nc3ccc(O)cc13)-c1cc3c(c(=O)n1C2)COC(=O)[C@]3(O)CC` [SN-38], the “ATM % change in MFI” value (NCI-H460 cells; 24 hr drug) is reported as 120%, the “ATM % change of positive cells” value (NCI-H460 cells; 24 hr drug) is reported as 13% and the “BRCA1 % change in MFI” value (NCI-H460 cells; 24 hr drug) is reported as −8%. The “BRCA1 % change of positive cells” value (NCI-H460 cells; 24 hr drug) was 143%, the “BRCA2 % change in MFI” value (NCI-H460 cells; 24 hr drug) was −20% and the “BRCA2 % change of positive cells” value (NCI-H460 cells; 24 hr drug) was 131%. For the same compound, the “RAD51 % change in MFI” value (NCI-H460 cells; 24 hr drug) was −8%, the “RAD51 % change of positive cells” value (NCI-H460 cells; 24 hr drug) was 180% and the “Survivin % change in MFI” value (NCI-H460 cells; 24 hr drug) was 149%. The “Survivin % change of positive cells” value (NCI-H460 cells; 24 hr drug) was −18%, the “yH2AX % change in MFI” value (NCI-H460 cells; 24 hr drug) was 1% and the “yH2AX % change of positive cells” value (NCI-H460 cells; 24 hr drug) was 235%. For the same compound, the “ATM % change in MFI” value (NCI-H460 cells; 24 hr drug + 6 hr without drug) was 329%, the “ATM % change of positive cells” value (NCI-H460 cells; 24 hr drug + 6 hr without drug) was 88% and the “BRCA1 % change in MFI” value (NCI-H460 cells; 24 hr drug + 6 hr without drug) was −10%. The “BRCA1 % change of positive cells” value (NCI-H460 cells; 24 hr drug + 6 hr without drug) was −52%, the “BRCA2 % change in MFI” value (NCI-H460 cells; 24 hr drug + 6 hr without drug) was −16% and the “BRCA2 % change of positive cells” value (NCI-H460 cells; 24 hr drug + 6 hr without drug) was 8%. The “RAD51 % change in MFI” value (NCI-H460 cells; 24 hr drug + 6 hr without drug) was 120%, the “RAD51 % change of positive cells” value (NCI-H460 cells; 24 hr drug + 6 hr without drug) was 337% and the “Survivin % change in MFI” value (NCI-H460 cells; 24 hr drug + 6 hr without drug) was 203%. The “Survivin % change of positive cells” value (NCI-H460 cells; 24 hr drug + 6 hr without drug) was 4%, the “yH2AX % change in MFI” value (NCI-H460 cells; 24 hr drug + 6 hr without drug) was −7% and the “yH2AX % change of positive cells” value (NCI-H460 cells; 24 hr drug + 6 hr without drug) was 919%. For the same compound, the “ATM % change in MFI” value (NCI-H460 cells; [1]) was 41%, the “ATM % change of positive cells” value (NCI-H460 cells; [1]) was 105% and the “BRCA1 % change in MFI” value (NCI-H460 cells; [1]) was 162%. The “BRCA1 % change of positive cells” value (NCI-H460 cells; [1]) was 3700%, the “BRCA2 % change in MFI” value (NCI-H460 cells; [1]) was 263% and the “BRCA2 % change of positive cells” value (NCI-H460 cells; [1]) was 261%. For the same compound, the “RAD51 % change in MFI” value (NCI-H460 cells; [1]) was 32%, the “RAD51 % change of positive cells” value (NCI-H460 cells; [1]) was 60% and the “Survivin % change in MFI” value (NCI-H460 cells; [1]) was 210%. For the same compound, the “Survivin % change of positive cells” value (NCI-H460 cells; [1]) was 85%, the “yH2AX % change in MFI” value (NCI-H460 cells; [1]) was −77% and the “yH2AX % change of positive cells” value (NCI-H460 cells; [1]) was 328%. The “dose response in MTT cytotoxicity assay” value (HL60; HL60, 72 hours, 0.01-10 μM) was “Good dose response”, the “dose response in MTT cytotoxicity assay” value (NCI-H460; H460, 72 hours, 0.01-10 μM) was “Good dose response” and the “γ-H2Ax High, MFI (x10^3)” value (HCT116 cells; staining panel 1) was “HCT116 (SN38), 487 x10^3”. The “RAD51 High, MFI (x10^3)” value (HCT116 cells; staining panel 2) was “HCT116 (SN38), 948 x10^3”.
With “pentaerythritolyl-4-arm-(PEG-1-methylene-2 oxo-vinylamino acetate linked-irinotecan)-20K [4-arm-PEG-gly-irino-20K]” the “objective response rate (ORR)” value (metastatic breast cancer; 145 mg/m^2 IV, every 14 days or every 21 days) was 28.6%, the “Overall Survival (OS)” value (metastatic breast cancer; Total) was 10.3 months and the “Progression Free Survival (PFS)” value (metastatic breast cancer; Total) was 4.6 months. For the same compound, the “Overall best CA27.29 response (50% or better decline in at least one observation from baseline)” value (metastatic breast cancer; Total, 16/45) was 36% (16/45), the “Overall Response Rate (ORR)” value (metastatic breast cancer; Total, N = 66) was 29% (N = 66) and the “Overall Survival (OS)” value (metastatic breast cancer; q21d) was “(13.1 months in q21d)”. For the same compound, the “Progression Free Survival (PFS)” value (metastatic breast cancer; q21d) was “(5.3 months in q21d)”.
